Measured values reported in publication PMC8537897, “Design, Synthesis and Biological Evaluation of Aromatase Inhibitors Based on Sulfonates and Sulfonamides of Resveratrol” (Pharmaceuticals, 2021).
Read-outs that look alike come from different tables or passages of the source.

Experiments:
[1] = system: MCF7 cells; assay: Cytotoxicity test (lactate dehydrogenase release); assay type: cell-based, human; details: 24 h
Procedure: To assess whether the decrease in metabolic activity is a consequence of cytotoxic occurrence in the presence of compounds 1b, 1c, and 1j, lactate dehydrogenase (LDH) released from MCF7 was measured in response to loading concentrations of 0–250 µM after a 24 h exposure. […] It is, therefore, plausible to assume that all tested compounds exert their anti-proliferative effect on MCF7 cells through cytotoxic induction and 1c is the most promising compound, being active already at lower doses.
MCF7 cells were seeded and stimulated as previously described for the MTT test. After the exposure time, cell supernatants were collected, centrifuged at 450× g for 4 min, and stored on ice. In order to quantify the cytotoxicity of loading concentrations of compounds 1b, 1c, and 1j (0–250 µM), the CytoTox 96® Non-Radioactive Cytotoxicity Assay (Promega Corporation, Madison, WI, USA) was performed as previously reported. The results were normalized on MTT absorbances and expressed as fold increases on the LDH released by cultures in the presence of vehicle (DMSO) set as 1.

[2] = system: normal human skin fibroblast (HFF-1); assay: Cell metabolic activity (MTT assay) on HFF-1; assay type: cell-based
Procedure: The compounds were then biologically characterized in terms of cytotoxicity occurrence (LDH released) on MCF7 cells. […] After 24 h of treatment, a dose-dependent decrease in cell metabolic activity can be registered for all the compounds with respect to DMSO alone. […] Similar results were obtained also after 72 h of treatment.
Human skin fibroblasts (HFF-1, CVCL_3285) and human breast cancer MCF7 (HTB-22™, CVCL_0031) were purchased from ATCC and maintained in Dulbecco’s modified Eagle’s medium (DMEM) high glucose (EuroClone, Milan, Italy) supplemented with 10% of fetal bovine serum (FBS) and 1% of penicillin/streptomycin (Gibco—Thermo Fisher Scientific, MD, USA).
Cell metabolic activity of HFF-1 and MCF7 cells was assessed by MTT (3-(4,5-Dimethylthiazol-2-yl)-2,5-Diphenyltetrazolium Bromide) test (Sigma Aldrich, Milan, Italy). […] After the established exposure times, cells were incubated with MTT (0.5 mg/mL) and the optical density was measured as reported elsewhere. Results were expressed as the percentage of cells in the presence of vehicle (DMSO) set as 100% and each experiment was performed in triplicate (n = 3). Concentration–response curves and IC50 were fitted and calculated with GraphPad Prism 5.0 (GraphPad Software, San Diego, CA, USA).

[3] = system: MCF7 cells; assay: Hematoxylin/eosin staining; assay type: cell-based, human; details: MCF7, 50 µM, 72 h, vs DMSO
Procedure: The effectiveness on MCF7 cells of compound 1c over the other compounds is confirmed by the hematoxylin/eosin staining (H&E) performed after 72 h of treatment at 50 µM. […] At a higher magnification (panels C and D), MCF7 cells show chromatin condensation (green arrows), as a typical sign of the initiation of cell death.
MCF7 cells were seeded (7 × 10^4 cells/well) in well glasses (Millicell® EZ slide, Merck Millipore, Burlington, MA, USA). After 24 h from seeding, cells were exposed to compound 1c at 50 µM for 72 h. Next, supernatants were removed, and cells were washed twice with PBS with calcium and magnesium (Euro Clone, Milan, Italy). MCF7 cells were fixed in the presence of p-formaldehyde 4% and stained with hematoxylin/eosin as reported elsewhere.

[4] = target: T1, human aromatase (Homo sapiens, UniProt P11511); assay: Aromatase inhibition, fluorimetric assay kit (Aromatase-CYP19A Inhibitor Screening kit, BioVision); assay type: biochemical
T1 construct: purchased BioVision, Milpitas, CA, USA
T1 sequence (P11511 1-503): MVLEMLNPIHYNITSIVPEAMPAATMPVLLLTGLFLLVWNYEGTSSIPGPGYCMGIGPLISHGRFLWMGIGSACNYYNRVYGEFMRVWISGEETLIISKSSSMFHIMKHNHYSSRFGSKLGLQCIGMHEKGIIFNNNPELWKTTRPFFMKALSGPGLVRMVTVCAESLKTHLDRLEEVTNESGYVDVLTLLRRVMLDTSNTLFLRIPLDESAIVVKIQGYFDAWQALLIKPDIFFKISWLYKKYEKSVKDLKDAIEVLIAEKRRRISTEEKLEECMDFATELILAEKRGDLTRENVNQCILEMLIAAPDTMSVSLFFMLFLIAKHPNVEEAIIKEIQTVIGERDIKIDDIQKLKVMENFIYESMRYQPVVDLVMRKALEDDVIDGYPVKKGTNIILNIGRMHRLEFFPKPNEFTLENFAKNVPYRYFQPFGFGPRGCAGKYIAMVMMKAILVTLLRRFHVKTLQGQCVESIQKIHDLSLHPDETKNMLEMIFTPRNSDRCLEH
Procedure: The activity was measured each minute for 60 min and the value obtained for each compound after 10 min was chosen to calculate the percentage of the aromatase inhibition.
The aromatase inhibitory activity was determined using a commercial fluorimetric assay kit (Aromatase-CYP19A Inhibitor Screening kit, BioVision, Milpitas, CA, USA), as reported elsewhere. The assay utilizes a fluorogenic aromatase substrate that is converted into a highly fluorescent metabolite detected in the visible range (Ex/Em 488/527 nm). […] During the incubation, the Aromatase Substrate/NADP+ mixture was prepared, and the reaction was started by adding 30 µL of this solution to each well (aside from the background control), reaching a final reaction volume of 100 µL/well. The fluorescence emission (527 nm) was measured immediately (within 1 min) by means of a fluorometer equipped with a 488 nm filter (GloMax®-Multi Detection System, Promega, Madison, WI, USA) and afterwards monitored for 60 min. […] The assay was performed in the same experimental conditions used for the initial screening of compounds. Dose–response curves were fitted with GraphPad Prism 5.0 (GraphPad Software, San Diego, CA, USA).

[5] = system: MCF7 breast cancer cell line; assay: Cell metabolic activity / viability (MTT assay) on MCF7; assay type: cell-based, human; details: for IC50: MTT, tested 0 to 500 µM;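 on all read-outs here: MTT optical density read-out in human MCF7 cells, normalised to DMSO vehicle-treated cells as 100%, with IC50 derived from fitted concentration–response curves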
Procedure: Cell metabolic activity of HFF-1 and MCF7 cells was assessed by MTT (3-(4,5-Dimethylthiazol-2-yl)-2,5-Diphenyltetrazolium Bromide) test (Sigma Aldrich, Milan, Italy). […] After the established exposure times, cells were incubated with MTT (0.5 mg/mL) and the optical density was measured as reported elsewhere [63]. Results were expressed as the percentage of cells in the presence of vehicle (DMSO) set as 100% and each experiment was performed in triplicate (n = 3). Concentration–response curves and IC50 were fitted and calculated with GraphPad Prism 5.0 (GraphPad Software, San Diego, CA, USA).

SMILES: Cc1ccc(S(=O)(=O)Oc2ccc(/C=C/c3ccccc3)cc2)cc1[N+](=O)[O-] [1c, 4-[(E)-2-Phenylvinyl]phenyl 4-methyl-3-nitrobenzenesulfonate]
- LDH release, dose dependence (in words) ([1]; MCF7, 0–250 µM): raises only at the highest concentration administered (250 µM)
- LDH released, fold vs vehicle (DMSO) set as 1 ([1]; MCF7, 50 µM): three folds more
- LDH released, fold vs vehicle (DMSO) set as 1 ([1]; MCF7, 250 µM): almost five folds more
- HFF-1 viability (in words) ([2]; 0–250 µM, 24 and 72 h): significant reduction in viability only at the maximum concentration and after 72 h of treatment
- Selectivity index (SI) over normal fibroblasts ([2]; HFF-1 vs MCF7, after 24 h): 1.82
- Cell number by H&E staining (in words) [3]: cell number is dramatically decreased
- inhibition at 1 µM [4]: 91%
- Potency in inhibiting aromatase relative to RSV ([4]; compared to RSV): twentyfold more potent than RSV
- IC50 ([4]; tested at concentrations from 0.01 to 100 μM, mean of triplicate determinations): 3.17 µM
- IC50 ([5]; Homo sapiens, MCF7, 24 h, 24 h, read-out: MCF7 Cells IC50 24 h): 29.2 µM
- IC50 ([5]; Homo sapiens, MCF7, 72 h, 72 h, read-out: MCF7 Cells IC50 72 h): 40 µM
- Viability (% of control) - 24 h ([5]; MCF7, 10 µM, 24 h): 85.23 ± 1.29 % of control
- Viability (% of control) - 72 h ([5]; MCF7, 10 µM, 72 h): 96.62 ± 6.99 % of control
- Viability (% of control) - 24 h ([5]; MCF7, 25 µM, 24 h): 73.08 ± 2.67 % of control
- Viability (% of control) - 72 h ([5]; MCF7, 25 µM, 72 h): 91.88 ± 5.31 % of control
- Viability (% of control) - 24 h ([5]; MCF7, 50 µM, 24 h): 37.39 ± 0.66 % of control
- Metabolically active cells ([5]; MCF7, 50 µM, 24 h, DMSO alone = 100%): around 60%
- Viability (% of control) - 72 h ([5]; MCF7, 50 µM, 72 h): 46.19 ± 1.67 % of control
- Viability (% of control) - 24 h ([5]; MCF7, 100 µM, 24 h): 36.17 ± 1.56 % of control
- Viability (% of control) - 72 h ([5]; MCF7, 100 µM, 72 h): 35.22 ± 2.21 % of control
- Viability (% of control) - 24 h ([5]; MCF7, 250 µM, 24 h): 38.64 ± 1.23 % of control
- Viability (% of control) - 72 h ([5]; MCF7, 250 µM, 72 h): 38.30 ± 4.07 % of control
- Viability (% of control) - 24 h ([5]; MCF7, 500 µM, 24 h): 34.30 ± 1.43 % of control
- Viability (% of control) - 72 h ([5]; MCF7, 500 µM, 72 h): 15.08 ± 0.67 % of control
- IC50 ([5]; 24 h, read-out: MCF7 Cells IC50 24 h): 29.2 ± 1.9 µM
- IC50 ([5]; 72 h, read-out: MCF7 Cells IC50 72 h): 39.9 ± 2.1 µM
